1 compound from article PMC5075806, “SIKs control osteocyte responses to parathyroid hormone” (Nature Communications, 2016) can be followed below.

Assay [1] has as its target SIK2 (Homo sapiens, UniProt Q9H0K1). The assay is described as follows: DiscoverX competition binding assay with DNA/phage-tagged kinase, qPCR readout, Kd curves.
The target in assay [2] is SIK3 (Homo sapiens, UniProt Q9Y2K2). Put plainly: DiscoverX scanEDGE competition binding panel at […] (SIK3 listed as QSK); value in Supplementary Table […].
Chain of SIK3 (Q9Y2K2 whole entry): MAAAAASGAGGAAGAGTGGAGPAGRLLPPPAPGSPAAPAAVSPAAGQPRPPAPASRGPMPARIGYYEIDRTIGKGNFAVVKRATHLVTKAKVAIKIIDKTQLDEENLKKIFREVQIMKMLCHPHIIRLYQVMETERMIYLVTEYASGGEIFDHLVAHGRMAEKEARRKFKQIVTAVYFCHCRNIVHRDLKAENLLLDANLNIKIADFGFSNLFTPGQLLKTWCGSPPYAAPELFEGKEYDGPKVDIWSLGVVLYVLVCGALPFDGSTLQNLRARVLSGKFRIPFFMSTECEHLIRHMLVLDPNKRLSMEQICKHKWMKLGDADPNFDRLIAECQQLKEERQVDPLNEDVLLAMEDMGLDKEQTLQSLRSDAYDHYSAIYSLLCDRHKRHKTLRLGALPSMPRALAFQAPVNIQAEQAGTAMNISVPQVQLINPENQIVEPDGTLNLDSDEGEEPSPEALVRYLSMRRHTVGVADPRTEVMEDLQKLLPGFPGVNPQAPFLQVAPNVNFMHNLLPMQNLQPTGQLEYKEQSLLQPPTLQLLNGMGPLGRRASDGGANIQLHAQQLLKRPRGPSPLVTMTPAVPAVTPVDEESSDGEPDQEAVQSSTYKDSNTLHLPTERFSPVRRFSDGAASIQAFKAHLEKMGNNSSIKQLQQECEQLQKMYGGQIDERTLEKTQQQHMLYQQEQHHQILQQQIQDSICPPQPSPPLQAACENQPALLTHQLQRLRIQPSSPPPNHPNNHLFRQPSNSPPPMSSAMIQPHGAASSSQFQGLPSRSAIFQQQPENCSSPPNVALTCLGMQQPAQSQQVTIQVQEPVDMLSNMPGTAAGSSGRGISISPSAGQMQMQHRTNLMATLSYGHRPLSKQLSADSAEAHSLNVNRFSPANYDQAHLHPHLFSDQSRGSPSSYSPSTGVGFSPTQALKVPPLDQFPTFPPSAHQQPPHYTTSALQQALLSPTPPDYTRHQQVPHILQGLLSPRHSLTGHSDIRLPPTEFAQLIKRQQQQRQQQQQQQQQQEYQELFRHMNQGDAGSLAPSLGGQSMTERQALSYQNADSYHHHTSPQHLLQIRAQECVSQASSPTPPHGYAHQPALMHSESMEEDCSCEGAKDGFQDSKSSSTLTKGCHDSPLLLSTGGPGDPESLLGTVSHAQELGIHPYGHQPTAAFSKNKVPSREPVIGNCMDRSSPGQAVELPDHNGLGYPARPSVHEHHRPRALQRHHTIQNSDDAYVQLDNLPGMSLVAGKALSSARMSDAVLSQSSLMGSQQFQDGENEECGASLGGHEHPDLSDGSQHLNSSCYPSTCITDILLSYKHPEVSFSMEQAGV

Chain of SIK2 (Q9H0K1 whole entry): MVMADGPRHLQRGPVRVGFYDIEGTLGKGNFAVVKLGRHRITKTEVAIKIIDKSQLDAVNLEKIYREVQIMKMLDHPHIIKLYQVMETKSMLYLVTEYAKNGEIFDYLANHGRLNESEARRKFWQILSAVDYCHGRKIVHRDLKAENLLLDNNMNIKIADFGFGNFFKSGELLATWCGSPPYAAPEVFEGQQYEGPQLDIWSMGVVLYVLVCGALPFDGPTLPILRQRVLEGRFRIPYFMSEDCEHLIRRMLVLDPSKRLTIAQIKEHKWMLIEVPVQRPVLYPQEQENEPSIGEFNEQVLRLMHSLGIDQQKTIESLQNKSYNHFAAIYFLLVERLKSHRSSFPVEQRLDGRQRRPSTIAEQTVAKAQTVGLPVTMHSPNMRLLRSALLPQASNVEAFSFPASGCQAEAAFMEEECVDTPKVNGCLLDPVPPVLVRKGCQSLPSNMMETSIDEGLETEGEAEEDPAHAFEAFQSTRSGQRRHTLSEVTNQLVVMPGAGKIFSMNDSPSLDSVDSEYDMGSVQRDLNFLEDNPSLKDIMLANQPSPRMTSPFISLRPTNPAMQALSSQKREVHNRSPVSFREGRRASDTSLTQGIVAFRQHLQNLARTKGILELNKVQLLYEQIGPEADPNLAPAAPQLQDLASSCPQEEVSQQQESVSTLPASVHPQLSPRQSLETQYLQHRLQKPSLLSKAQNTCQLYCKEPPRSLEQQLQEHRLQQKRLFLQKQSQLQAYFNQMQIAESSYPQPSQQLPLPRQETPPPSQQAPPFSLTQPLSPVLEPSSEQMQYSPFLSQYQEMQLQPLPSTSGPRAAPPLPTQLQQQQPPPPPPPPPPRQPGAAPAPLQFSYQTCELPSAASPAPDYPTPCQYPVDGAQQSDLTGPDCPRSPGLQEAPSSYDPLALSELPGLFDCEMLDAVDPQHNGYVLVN

With `COc1ccc(N2C(=O)N(c3c(C)cccc3C)Cc3cnc(Nc4ccc(C5CCN(C)CC5)cc4OC)nc32)c(OC)c1` [YKL-05-093], binding in assay [1] was put at a Kd of 7.1 nM. In addition, the “DiscoverX scanEDGE competition binding panel at 71 nM (SIK3 listed as QSK); valu” value in assay [2] is “both inhibitors potently target SIK3 in addition to SIK2”.
